Results reported in patent US7109174B2, “Anticonvulsant derivatives useful for preventing the development of type II diabetes mellitus and syndrome X” (Ortho-McNeil Pharmaceutical, Inc., priority 2000, dated 2006).

Key:
ob/ob mice = ob/ob mice second study: topiramate in food for 118 days; skin lesions, glucose, insulin, glycosylated hemoglobin, body weight; format: in vivo; set-up: Glycosylated hemoglobin: unit not given here; conditions: for Skin lesions Mild (mice) / Skin lesions Moderate (mice) / Skin lesions Severe (mice) / Skin lesions Total (mice): 180 mg/kg/day, N = 9
Text: It is known that ob/ob mice when allowed to eat ad libitum, develop abnormally high blood levels of insulin (hyperinsulinemia), glucose (hyperglycemia), lesions of the skin, and a high level of glycosylated hemoglobin, all of which are hallmark signs of Type II diabetes mellitus (R. R. HENRY, Ann. Intern. Med. 1996, 124, 97–103; G. W. EDELSON, Clin. Podiatr. Med. Surg. 1998, 15, 41–48; P. R. JOHNSON, M. R. GREENWOOD, B. A. HORWITZ and J. S. STERN, Annu. Rev. Nutr. 1991, 11, 325–353). Based on this knowledge of the ob/ob mouse model, two studies were designed to determine the effect of compounds of formula (I) in these mice models.
In the second study, a uniform population of mice was divided into two groups. In one group of control mice, no topiramate was added to the food for the entire 118-day period. In a second group, topiramate was added to the food in amounts sufficient to give a daily dose of 60 mg/kg for 6 days, then a daily dose of 180 mg/kg for 112 days. During the course of the dosing period the mice were examined two-times a week for skin lesions. When skin lesions were evident, the severity was estimated based on the number and size of the lesions, and given a score ranging from mild to severe (Table 2). For four of the control mice their health deteriorated to the point that they either died or had to be euthanized. Three of these four control mice had lesions (two mice were classified as severe and one mice as mild). […] By comparison none of the nine mice treated with topiramate ever developed skin lesions (Table 2). After the 118-day period was completed, all surviving mice were sacrificed and blood was obtained and prepared for subsequent analysis of plasma glucose and insulin, and glycosylated hemoglobin. […] The body weight gain was similar in both groups throughout the study. Therfore, the beneficial effects of topiramate on the biological markers of the disease cannot be secondary to the potential beneficial effect that might arise from a loss of body eight.

[1] = tested on: rodent models of epilepsy; conditions: several rodent models of epilepsy; cited from earlier work
Female db/db mice = assay: Oral glucose tolerance test (fasted) in female db/db mice after 11 days oral dosing; format: in vivo; conditions: for Oral Glucose Tolerance Test (fasted) Plasma Glucose: ± sem
Experimental: Female db/db mice (C57BLK S/J-m^+/^+ Lepr^db Jackson Labs, Bar Harbor, Me.), 7–8 weeks of age, were housed four per cage in solid-bottomed shoe box cages. Room temperature was maintained at 68–72° F. and humidity at 50–65%. Room lighting was on a 12-hour light/12-hour dark cycle. The mice were maintained on NIH Rat and Mouse/Auto 6F reduced fat diet #5K52 (PMI Nutrition Int'l Inc.). Food and water were supplied ad libitum.
Test compound and vehicle were dosed orally and prepared as suspensions in 0.5% hydroxypropylmethylcellulose (Dow Chemical, Midland, Mich.). The dosing volume was 10 mL/kg of body weight.
Different groups of female db/db mice (7–8/group) were orally gavaged daily for 11 days with either 0.5% methylcellulose in dH2O (vehicle), topiramate at 30 or 100 mg/kg/day or 2,3:4,5-bis-O-(1-methylethylidene)-β-L-fructopyranose sulfamate (hereinafter referred to as Compound V) at 30 or 100 mg/kg/day. On day 10, the animals were fasted for 20 hours before being tested for oral glucose tolerance (OGT). On day 11, four hours after the final dose for each group, an oral glucose tolerance test (OGTT) was performed by oral glucose administration of 2 g/kg. Animals were bled through tail clip at 0 (before glucose), 30, 60 and 120 min after glucose challenge. The blood samples were collected into heparinized CB microvettes and then put on ice. The plasma samples will be assayed for plasma glucose determination by using SIGMA DIAGNOSTICS Trinder reagent (Sigma, St. Louis, Mo.). Statistical analysis was performed using the program Instat (Graphpad, Monrovia, Calif.) and performing one-way ANOVA with a Dunnett's multiple comparison test.
Following the above described procedure, the effect of topiramate and compound V on oral glucose tolerance in female db/db mice, 7 mice/group, was determined, with results as listed in Table 9. The abbreviation N represents the number of animals per study group.

For `CC1(C)O[C@@H]2[C@@H](CO[C@@]3(COS(N)(=O)=O)OC(C)(C)O[C@@H]23)O1` [Topiramate, 2,3:4,5-bis-O-(1-methylethylidene)-β-D-fructopyranose sulfamate], the “level of blood glucose” value (ob/ob mice; 60 mg/kg/day 6 days then 180 mg/kg/day 112 days in food, end of study, mean±SEM, n=9, P<0.05) was 131 ± 13 mg/dL, the “Skin lesions Mild (mice)” value (ob/ob mice; Day 41) was 0 and the “Skin lesions Moderate (mice)” value (ob/ob mice; Day 41) was 0. The “Skin lesions Severe (mice)” value (ob/ob mice; Day 41) was 0, the “Skin lesions Total (mice)” value (ob/ob mice; Day 41) was 0 and the “Skin lesions Mild (mice)” value (ob/ob mice; Day 53) was 0. The “Skin lesions Moderate (mice)” value (ob/ob mice; Day 53) was 0, the “Skin lesions Severe (mice)” value (ob/ob mice; Day 53) was 0 and the “Skin lesions Total (mice)” value (ob/ob mice; Day 53) was 0. For the same compound, the “Skin lesions Mild (mice)” value (ob/ob mice; Day 61) was 0, the “Skin lesions Moderate (mice)” value (ob/ob mice; Day 61) was 0 and the “Skin lesions Severe (mice)” value (ob/ob mice; Day 61) was 0. For the same compound, the “Skin lesions Total (mice)” value (ob/ob mice; Day 61) was 0, the “Skin lesions Mild (mice)” value (ob/ob mice; Day 70) was 0 and the “Skin lesions Moderate (mice)” value (ob/ob mice; Day 70) was 0. For the same compound, the “Skin lesions Severe (mice)” value (ob/ob mice; Day 70) was 0, the “Skin lesions Total (mice)” value (ob/ob mice; Day 70) was 0 and the “Skin lesions Mild (mice)” value (ob/ob mice; Day 83) was 0. For the same compound, the “Skin lesions Moderate (mice)” value (ob/ob mice; Day 83) was 0, the “Skin lesions Severe (mice)” value (ob/ob mice; Day 83) was 0 and the “Skin lesions Total (mice)” value (ob/ob mice; Day 83) was 0. The “Skin lesions Mild (mice)” value (ob/ob mice; Day 96) was 0, the “Skin lesions Moderate (mice)” value (ob/ob mice; Day 96) was 0 and the “Skin lesions Severe (mice)” value (ob/ob mice; Day 96) was 0. The “Skin lesions Total (mice)” value (ob/ob mice; Day 96) was 0, the “Skin lesions Mild (mice)” value (ob/ob mice; Day 97) was 0 and the “Skin lesions Moderate (mice)” value (ob/ob mice; Day 97) was 0. For the same compound, the “Skin lesions Severe (mice)” value (ob/ob mice; Day 97) was 0, the “Skin lesions Total (mice)” value (ob/ob mice; Day 97) was 0 and the “Skin lesions Mild (mice)” value (ob/ob mice; Day 105) was 0. The “Skin lesions Moderate (mice)” value (ob/ob mice; Day 105) was 0, the “Skin lesions Severe (mice)” value (ob/ob mice; Day 105) was 0 and the “Skin lesions Total (mice)” value (ob/ob mice; Day 105) was 0. The “Skin lesions Mild (mice)” value (ob/ob mice; Day 118) was 0, the “Skin lesions Moderate (mice)” value (ob/ob mice; Day 118) was 0 and the “Skin lesions Severe (mice)” value (ob/ob mice; Day 118) was 0. For the same compound, the “Skin lesions Total (mice)” value (ob/ob mice; Day 118) was 0, the body weight (ob/ob mice; day 118) was 55.1 ± 1.3 g and the body weight (ob/ob mice; day −1, n=9) was 42.8 ± 1.1 g. The “insulin levels versus control” value (ob/ob mice; end of 118-day study) was “did not differ”, the Glycosylated hemoglobin (ob/ob mice; end of 118-day study, mean±SEM, n=9, P<0.01) was 3.16±0.1 and the “mice that ever developed skin lesions” value (ob/ob mice; nine topiramate-treated mice, 118-day period) was “none”. For the same compound, the “body weight gain versus control” value (ob/ob mice; throughout the 118-day study) was “similar”, the “blood glucose difference between groups” value (ob/ob mice; topiramate-treated versus control at end of 118-day study) was 52% and the “Glycosylated hemoglobin reduction with topiramate treatment” value (ob/ob mice; versus surviving control mice, end of 118-day study) was 48%. The seizure block [1] was “effectively block seizures”, the Oral Glucose Tolerance Test (fasted) Plasma Glucose (Female db/db mice; 30 mg/kg/day, 0 min (before glucose 2 g/kg)) was 188 ± 16.7 mg/dL and the Oral Glucose Tolerance Test (fasted) Plasma Glucose (Female db/db mice; 30 mg/kg/day, 30 min after glucose 2 g/kg) was 401 ± 68.4 mg/dL. For the same compound, the Oral Glucose Tolerance Test (fasted) Plasma Glucose (Female db/db mice; 30 mg/kg/day, 60 min after glucose 2 g/kg) was 295 ± 31.5 mg/dL, the Oral Glucose Tolerance Test (fasted) Plasma Glucose (Female db/db mice; 30 mg/kg/day, 120 min after glucose 2 g/kg) was 124 ± 20 mg/dL and the Oral Glucose Tolerance Test (fasted) Plasma Glucose (Female db/db mice; 100 mg/kg/day, 0 min (before glucose 2 g/kg)) was 160 ± 12.8 mg/dL. For the same compound, the Oral Glucose Tolerance Test (fasted) Plasma Glucose (Female db/db mice; 100 mg/kg/day, 30 min after glucose 2 g/kg) was 454 ± 38.5 mg/dL, the Oral Glucose Tolerance Test (fasted) Plasma Glucose (Female db/db mice; 100 mg/kg/day, 60 min after glucose 2 g/kg) was 271 ± 52.6 mg/dL and the Oral Glucose Tolerance Test (fasted) Plasma Glucose (Female db/db mice; 100 mg/kg/day, 120 min after glucose 2 g/kg) was 184 ± 32.3 mg/dL. For the same compound, the “elevated blood glucose levels induced by oral glucose challenge” value (Female db/db mice; 30 or 100 mg/kg/day) was “suppressed” and the fasting glucose levels (Female db/db mice; 30 or 100 mg/kg/day) was “decreased”.
